Laboratory results published in PubChem BioAssay (NCI).
“And” between values parts separate entries of the source, which are not always exact repeats. Equal values may be shown once.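 Five compound concentrations were applied to cells in 96-well plates for 48 hours; endpoints were derived by simple linear interpolation of the resulting dose-response curve. At the GI50, growth is halved. Definition used: TGI = concentration required for complete inhibition of growth.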

Key:
Experiment in all cases: growth of human tumour cells (NCI), 48 h
SK-MEL-5 melanoma = test system: SK-MEL-5 melanoma
NCI-H226 lung = test system: NCI-H226 lung
SK-MEL-28 melanoma = test system: SK-MEL-28 melanoma
HCT-116 colon = test system: HCT-116 colon
786-0 renal = test system: 786-0 renal
HCT-15 colon = test system: HCT-15 colon
SN12C renal = test system: SN12C renal
MALME-3M melanoma = test system: MALME-3M melanoma
SK-MEL-2 melanoma = test system: SK-MEL-2 melanoma
NCI-H522 lung = test system: NCI-H522 lung

Row | Compound | GI50 (SK-MEL-5 melanoma) | TGI (SK-MEL-5 melanoma) | GI50 (NCI-H226 lung) | TGI (NCI-H226 lung) | GI50 (SK-MEL-28 melanoma) | TGI (SK-MEL-28 melanoma) | GI50 (HCT-116 colon) | TGI (HCT-116 colon) | GI50 (786-0 renal) | TGI (786-0 renal) | TGI (HCT-15 colon) | GI50 (SN12C renal) | TGI (SN12C renal) | GI50 (MALME-3M melanoma) | TGI (MALME-3M melanoma) | GI50 (SK-MEL-2 melanoma) | TGI (SK-MEL-2 melanoma) | GI50 (NCI-H522 lung) | TGI (NCI-H522 lung) | GI50 (HCT-15 colon)
1 | C=C(C)C1CC=C(C)CC1 (stereo not drawn) | > 100 µM | > 100 µM and 1560 µM | > 100 µM | > 100 µM and 1570 µM | > 100 µM | > 100 µM and 1680 µM | > 100 µM | > 100 µM and 1620 µM | > 100 µM | > 100 µM and 1620 µM | 1620 µM | > 100 µM | > 100 µM and 1640 µM | > 100 µM | > 100 µM and 1690 µM | > 100 µM | > 100 µM and 1720 µM | > 100 µM | > 100 µM and 1710 µM | 
2 | O=C1C(=O)c2ccccc2C(O)=C1CCCc1ccc(C2CCCC2)cc1 | 3.79 µM | 14.5 µM | 3.77 µM | 20.5 µM | 7.69 µM | 40.1 µM | 3.55 µM | 13.2 µM | 4.02 µM | 21.4 µM | 16.9 µM | 6.78 µM | 95 µM | 6.55 µM | 38 µM | 7.2 µM | 32.7 µM | 5.01 µM | 25.9 µM | 4.25 µM
3 | CN1CC[C@]2(c3cccc(O)c3)CC(=O)/C(=C/c3ccccc3)[C@H]1C2 |  | 9.35 µM | 9.03 µM | 28.6 µM |  | 12.8 µM |  | 7.29 µM | 3.21 µM | 10.1 µM | 10.6 µM |  | 11.4 µM |  | 9.51 µM | 3.28 µM | 12.6 µM |  | 7.76 µM | 2.5 µM
4 | CCOc1ccc2c(C)cc(=O)oc2c1 |  | > 100 µM |  | > 100 µM |  | > 100 µM |  | > 100 µM |  | > 100 µM | > 100 µM |  | > 100 µM |  | > 100 µM |  | > 100 µM |  | > 100 µM | 
5 | COc1cccc(NC(=O)C(C)(C)C)c1SSc1c(NC(=O)C(C)(C)C)cccc1OC |  | > 100 µM |  | > 93.6 µM |  | > 57.9 µM |  | 42.8 µM |  | 53.1 µM | 44.4 µM |  | > 54.9 µM |  | > 63.4 µM |  | > 100 µM |  | 27.2 µM | 
6 | O=C1CCCCC=C1C[N+](=O)[O-] | 26.9 µM | 74.3 µM | 26 µM | 73.3 µM | 28.5 µM | 92 µM | 17 µM | 50.8 µM | 17.6 µM | 39.6 µM | 35.8 µM | 31.6 µM | > 100 µM | 30.3 µM | 53.5 µM | 19.5 µM | 44.4 µM | 14.6 µM | 37 µM | 13.5 µM
7 | c1ccc(Nc2nc(-c3ccccn3)cs2)nc1 | 0.355 µM | 6.17 µM | 1 µM | > 63.1 µM | 1.5 µM | > 100 µM | 0.326 µM | 21.6 µM | 0.344 µM | > 38.2 µM | > 89.2 µM | 0.873 µM | > 100 µM | 0.156 µM | 5.16 µM | 0.442 µM | 30.4 µM | 0.253 µM | 15.1 µM | 0.172 µM
8 | Cc1[nH]c(C(=O)Nc2ccccc2OC2CCNCC2)c(Cl)c1Cl | 0.88 µM | 1.59 µM | 0.966 µM | 1.96 µM | 1.01 µM | 1.97 µM | 0.837 µM | 1.59 µM | 0.817 µM | 1.57 µM | 1.88 µM | 0.86 µM | 1.59 µM | 0.809 µM | 1.55 µM | 0.932 µM | 1.91 µM | 0.866 µM | 1.74 µM | 0.912 µM
9 | O=S(=O)(c1ccc(Br)cc1)N1CCN(S(=O)(=O)c2ccc(Br)cc2)CC1 |  | > 100 µM |  | > 100 µM |  | > 100 µM |  | > 100 µM |  | > 100 µM | > 100 µM |  | > 100 µM |  | > 100 µM |  | > 100 µM |  | > 100 µM | 
10 | COc1cc(/C=C2\Oc3cc(OCCCN4CCCC4)ccc3C2=O)cc(OC)c1 | 2 µM | 4.6 µM | 13.8 µM | 27 µM | 4.12 µM | 16 µM | 2.78 µM | 8.34 µM | 3.86 µM | 14.5 µM | 12.3 µM | 10.3 µM | 22 µM | 1.77 µM | 4.26 µM | 14.7 µM | 30.2 µM | 14.2 µM | 32.7 µM | 2.84 µM
11 | CCC(CCC(C)C1CCC2C3CC=C4CC(OC5OC(CO)C(O)C(O)C5O)CCC4(C)C3CCC12C)C(C)C (stereo not drawn) |  | > 100 µM |  | > 100 µM |  | > 100 µM |  | > 100 µM |  | > 100 µM | > 100 µM |  | > 100 µM |  | > 100 µM |  | > 100 µM |  | > 100 µM | 
12 | COc1cc2nc(-c3ccc(Cl)cc3)cc(OCCCN3CCCC3)c2cc1OC | 0.961 µM | 2.16 µM | 0.898 µM | 3.21 µM | 1.48 µM | 4.28 µM | 0.699 µM | 10.1 µM | 2.78 µM | 12.1 µM | 11.5 µM | 0.914 µM | 13.7 µM | 1.68 µM | 4.52 µM | 2.16 µM | 5.22 µM | 2.36 µM | 8.89 µM | 0.567 µM
13 | COc1ccc2c(c1)C1OCCNC1CC2 (stereo not drawn) |  | > 100 µM |  | > 100 µM |  | > 100 µM |  | > 100 µM |  | > 100 µM | > 100 µM |  | > 100 µM |  | > 100 µM |  | > 100 µM |  | > 100 µM | 
14 | COc1cccc(-n2cc(-c3nc(Nc4cc(C)[nH]n4)c4ccccc4n3)nn2)c1 | 1.07 µM | 4.06 µM | 4.02 µM | 10.6 µM | 6.05 µM | 13.9 µM | 2.1 µM | 10.5 µM | 2.89 µM | 9.85 µM | 9.23 µM | 3.04 µM | 12.4 µM | 5.31 µM | 13.7 µM | 1.71 µM | 9.27 µM | 3.38 µM | 10.2 µM | 0.228 µM
15 | C1COCCOCCOCCOCCOCCO1.[Cl][Sn]([Cl])([c]1ccccc1)[c]1ccccc1 | 4.86 µM | 17.2 µM | 11.5 µM | 27.9 µM | 2 µM | 4.19 µM | 5.53 µM | 17.3 µM | 2.41 µM | 5.51 µM | 13.5 µM | 7.02 µM | 20.4 µM | 1.99 µM | 3.82 µM | 1.7 µM | 3.25 µM | 0.766 µM | 2.05 µM | 4.14 µM
16 | NS(=O)(=O)c1ccc(NCc2cnc3ccccc3n2)cc1 |  | > 100 µM |  | > 100 µM |  | > 100 µM |  | > 100 µM |  | > 100 µM | > 100 µM |  | > 100 µM |  | > 100 µM |  | > 100 µM |  | > 100 µM | 
17 | CCCCCCC/C=C/[C@H]1O[C@]2(O)C(=O)C=C3C[C@@H](O[C@@H]4O[C@H](CO)[C@@H](O)C(O)[C@@H]4O)C[C@@H]3[C@H]2C=C1C (stereo partly drawn) | 4.31 µM | 8.53 µM | 4.52 µM | 13.7 µM | 3.97 µM | 8.62 µM | 0.95 µM | 3.64 µM | 2.35 µM | 7.08 µM | 4.59 µM | 2.8 µM | 10.7 µM | 4.8 µM | 10.3 µM | 3.46 µM | 9.34 µM | 0.664 µM | 1.81 µM | 1.04 µM
18 | O=C(c1ccco1)c1c(C(F)(F)F)nc2ccc(C(F)(F)F)cc2[n+]1[O-] | 31.4 µM | > 67.1 µM | 32.1 µM | > 100 µM | 25.2 µM | 80.6 µM | 29.3 µM | > 100 µM | 27 µM | 62 µM | > 100 µM | 43.4 µM | > 100 µM | 20.8 µM | 47.7 µM | > 64.6 µM | > 100 µM | 62.1 µM | > 100 µM | > 86.9 µM
19 | C[C@]12CC[C@H]3[C@@H](CCC4=CC(=O)CC[C@@]43C)[C@@H]1CC[C@@H]2C(=O)COS(=O)(=O)c1ccc(Br)cc1 |  | 47.9 µM |  | 39.3 µM |  | 43.5 µM |  | 22.7 µM |  | > 22.4 µM | 55.7 µM |  | 34.3 µM |  | 12.7 µM |  | 22.3 µM |  | 2.97 µM | 
20 | NC(=S)N/N=C/c1ccc(N)cn1 |  | > 6.95 µM |  | > 10 µM |  | > 10 µM |  | > 10 µM |  | > 10 µM | > 10 µM |  | > 10 µM |  | > 10 µM |  | > 10 µM |  | > 10 µM | 
21 | CO[C@]12C=C/C(=C(/C(=O)OCc3cccnc3)C(=O)CCCCCCCC[C@@]3(OC)C=C/C(=C(/C(=O)OCc4cccnc4)C(=O)CCCCCCCC1)O3)O2 | 0.856 µM | 1.64 µM | 1.02 µM | 1.94 µM | 1.37 µM | 6.45 µM | 0.275 µM | 1.22 µM | 1.32 µM | 4.71 µM | 2.82 µM | 1.84 µM | 34.2 µM | 1.11 µM | 3.7 µM | 1.34 µM | 4 µM | 1.05 µM | 2.85 µM | 1.04 µM
22 | COc1cc2oc(-c3ccc(O)cc3O)c(CC=C(C)C)c(=O)c2c(O)c1/C=C/C(C)C |  | 3.06 µM |  | 9.98 µM |  | 13.9 µM |  | 3.93 µM |  | 4.53 µM | 10.3 µM |  | 3.35 µM |  | 14.2 µM |  | 17.9 µM |  | 12.1 µM | 
